According to BindingDB's records for patent US20240083921 (Reistone Biopharma Company, 2024):

Biological target: cAMP-specific 3',5'-cyclic phosphodiesterase 4B (Homo sapiens, UniProt Q07343)
Assay: In vitro PDE4B Enzyme Activity Detection Assay
Protocol: 1. Experimental MaterialsName Brand Cat No.PDE4B1 enzyme BPS 60041Trequinsin TOCRIS 2337/10IMAP FP IPP Explorer Kit Molecular Device R8124FAM-cAMP Molecular Device R7506OptiPlate -384 F PerkinElmer 6007279black assay plate 384 well Echo plate Labcyte PP-02002. Experimental StepsFirst, a stock solution of the compound at a concentration of 10 mM was prepared in a test tube with 90% DMSO (10% water), and it was used to prepare a series of dilutions with a dilution factor of 1:5 and final concentrations starting from 100 μM to as low as 0.05 nM. 0.2 μl of the compound solution was transferred into a 384-well reaction plate, and 0.2 μl of 100% DMSO was transferred into both the negative and positive controls. Then, 10 μl of 2 PDE4B1 enzyme solution (making a final concentration of 0.04 nM) was added to each well, and 10 μl of 1 reaction buffer instead of the enzyme solution was added to the zero enzyme activity control wells. The plate was centrifuged at 1,000 rpm for 1 min and incubated at room temperature for 15 min. […] After the incubation, the RLU data were read and the inhibition rate was calculated. The IC50 value was calculated from the concentration-inhibition fitted curve, wherein the maximum value refers to the reading of the DMSO control and the minimum value refers to the reading of the zero enzyme activity control.

cAMP-specific 3',5'-cyclic phosphodiesterase 4B, sequence (Q07343 whole entry): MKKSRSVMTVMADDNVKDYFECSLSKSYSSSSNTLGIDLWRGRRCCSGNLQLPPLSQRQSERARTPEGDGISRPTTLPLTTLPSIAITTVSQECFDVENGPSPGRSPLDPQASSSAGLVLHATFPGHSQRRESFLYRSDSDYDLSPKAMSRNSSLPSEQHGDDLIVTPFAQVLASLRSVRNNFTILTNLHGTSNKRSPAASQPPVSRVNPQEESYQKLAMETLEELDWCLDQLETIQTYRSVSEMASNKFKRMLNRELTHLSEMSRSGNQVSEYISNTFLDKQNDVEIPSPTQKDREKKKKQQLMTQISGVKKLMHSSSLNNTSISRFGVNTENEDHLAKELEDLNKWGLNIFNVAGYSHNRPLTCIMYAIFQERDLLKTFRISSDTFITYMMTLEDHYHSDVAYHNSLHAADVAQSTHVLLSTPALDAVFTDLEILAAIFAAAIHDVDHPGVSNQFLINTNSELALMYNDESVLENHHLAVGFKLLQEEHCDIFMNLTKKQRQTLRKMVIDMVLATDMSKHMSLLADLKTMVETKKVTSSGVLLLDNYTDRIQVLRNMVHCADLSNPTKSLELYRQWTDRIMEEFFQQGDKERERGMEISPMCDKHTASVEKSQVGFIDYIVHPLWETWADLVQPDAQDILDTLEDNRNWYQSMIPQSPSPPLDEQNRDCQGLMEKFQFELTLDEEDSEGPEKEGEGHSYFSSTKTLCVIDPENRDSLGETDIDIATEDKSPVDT

IC50 [nM] | SMILES
3.62 | COc1ccc(-c2cncc([C@H]3COB(O)C3)n2)c2c1OC(C)(C)CC2 [US20240083921, Compound 11-2]
0.22 | COc1ccc(-c2cncc(C3COB(O)C3)c2)c2c1OC(C)(C)CO2 (configuration not stated) [US20240083921, Compound 8]
